In patent US4479954A, “Piperazine substituted carboxamide derivatives, compositions and method of use” (Eisai Co., Ltd., priority 1981, dated 1984):
Where a name gives a salt, the structure may show the parent alone. Read-outs that look alike come from different tables or passages of the source.

Key:
sub-diabetic rats = assay: Improvement of glucose tolerance in STZ sub-diabetic rats (Experiment 1); assay type: in vivo, Male Sprague-Dawley rats; conditions: for inhibition in vivo at 10 mg/kg / Improvement of glucose tolerance at 10 mg/kg: Rattus norvegicus; for inhibition in vivo at 10 mg/kg: 10 mg/kg oral, STZ sub-diabetic rats, relative to control group as 100%; for Improvement of glucose tolerance at 10 mg/kg: po
Procedure: Male Sprague-Dawley rats (weighing 300-350 g) were maintained on rat chow and water adlibitum in a constant temperature room (22°-24° C.) for at least a week prior to use in studies. Sub-diabetic rats*^1 were obtained by intrevenous injection of 20 mg/kg of streptozotocin (STZ). The compounds were orally administered in 5% gum arabic suspension in sub-diabetic rats. 3 g/kg of glucose was administered intraperitoneally an hour later. Blood samples were taken from the tail vein, and the blood sugar was measured by the anthrone method [Ui.
*1: STZ sub-diabetic rats are obtained by administering a low dose of streptozotocin (20 mg/kg) dissolved in physiological saline containing 1 mM citrate buffer (pH 4.5) into the superficial cutaneous vein.
*^2 The improvement percent of glucose tolerance means a percentage o
blood sugar of the group treated with the test compounds each after
glucose load (1, 2 and 3 hours after) relative to that of the control

DDY strain mice = assay: Acute Toxicity Test, oral, mice (Experiment 2); assay type: in vivo; conditions: observation within one week; for Acute toxicity, number of dead cases / number of cases tested, 500 mg/kg: 500 mg/kg oral; for Acute toxicity, number of dead cases / number of cases tested, 1,000 mg/kg: 1,000 mg/kg oral
Procedure: More specifically, when an experiment was carried out in DDY strain mice, there was no case of death at a dosage of 1,000 mg/kg, as shown below.
DDY strain mice (weighing 20-25 g) maintained on mice chow and water adlibitum in a constant temperature room (22°-24° C.) for at least a week were used.
An acute toxicity test was carried out by oral administration of the compounds at two dosage levels of 500 mg/kg and 1,000 mg/kg. Observation of dead cases were made within one week. In table 2, the denominator of each value indicates the number of cases tested and the numerator indicates the number of dead cases. Compounds A, B, C, D, E and F correspond to Compoounds A-F in Experiment 1 respectively.

[1] = 1 hr. after glucose load (3 g/kg i.p.), read-out: Improvement percent of glucose tolerance, 1 hr.
[2] = 2 hrs. after glucose load (3 g/kg i.p.), read-out: Improvement percent of glucose tolerance, 2 hrs.
[3] = 3 hrs. after glucose load (3 g/kg i.p.), read-out: Improvement percent of glucose tolerance, 3 hrs.
[4] = 1 h, read-out: Improvement percent of glucose tolerance, 1 hr.
[5] = 2 h, read-out: Improvement percent of glucose tolerance, 2 hrs.
[6] = 3 h, read-out: Improvement percent of glucose tolerance, 3 hrs.

Row | Compound | Improvement percent of glucose tolerance after 1 hour (sub-diabetic rats; 39 mg/kg, 6 rats, after 1 hour, method similar to Experiment 1) [%] | Improvement percent of glucose tolerance after 2 hours (sub-diabetic rats; 39 mg/kg, 6 rats, after 2 hours, method similar to Experiment 1) [%] | Improvement percent of glucose tolerance after 3 hours (sub-diabetic rats; 39 mg/kg, 6 rats, after 3 hours, method similar to Experiment 1) [%] | Acute toxicity, number of dead cases / number of cases tested, 500 mg/kg (DDY strain mice) | Acute toxicity, number of dead cases / number of cases tested, 1,000 mg/kg (DDY strain mice) | inhibition in vivo at 10 mg/kg (sub-diabetic rats; [1]) [%] | inhibition in vivo at 10 mg/kg (sub-diabetic rats; [2]) [%] | inhibition in vivo at 10 mg/kg (sub-diabetic rats; [3]) [%] | Improvement of glucose tolerance at 10 mg/kg (sub-diabetic rats; [4]) [%] | Improvement of glucose tolerance at 10 mg/kg (sub-diabetic rats; [5]) [%] | Improvement of glucose tolerance at 10 mg/kg (sub-diabetic rats; [6]) [%]
1 | O=C(OC(CN1CCN(c2ccccn2)CC1)CN1C(=O)[C@@H]2[C@H](C1=O)[C@@H]1C=C[C@H]2C1)C1CCCCC1 (stereo partly drawn) [Example 7, N-[2-Cyclohexylcarbonyloxy-3-{4-(2-pyridyl)piperazin-1-yl}propyl]-endo-cis-bicyclo[2,2,1]hept-5-ene-2,3-dicarboximide dihydrochloride] | 23 | 33 | 37 | – | – | – | – | – | – | – | –
2 | CCCCCCCCCC(=O)OC(CN1CCN(c2ccccn2)CC1)CN1C(=O)C2CC=CCC2C1=O (stereo not drawn) [Compound B, N-[2-n-Decanoyloxy-3-{4-(2-pyridyl)piperazin-1-yl}propyl]cis-cyclohex-4-ene-1,2-dicarboximide dimaleater] | – | – | – | 0/5 | 0/5 | 15 | 23 | 26 | – | – | –
3 | O=C(O)/C=C\C(=O)O.O=C(OC(CN1CCN(c2ccccn2)CC1)CN1C(=O)[C@H]2CC=CC[C@H]2C1=O)c1cccnc1 (relative stereo) [Compound E, N-[2-Nicotinoyloxy-3-{4-(2-pyridyl)piperazin-1-yl}propyl]cis-cyclohex-4-ene-1,2-dicarboximide maleate] | – | – | – | 0/5 | 0/5 | – | – | – | 11 | 20 | 9
4 | CCCCCC(=O)OC(CN1CCN(C)CC1)CN1C(=O)C2CC=CCC2C1=O (stereo not drawn) [Compound J, N-{2-n-Caproyloxy-3-(4-methylpiperazin-1-yl)propyl}cis-cyclohex-4-ene-1,2-dicarboximide dimaleate] | – | – | – | – | – | 0 | 21 | 32 | – | – | –
5 | CCCCCCCCCCCCCCCC(=O)OC(CN1CCN(c2ccccn2)CC1)CN1C(=O)[C@H]2CC=CC[C@H]2C1=O (relative stereo) [Compound G, N-[2-Palmitoyloxy-3-{4-(2-pyridyl)piperazin-1-yl}propyl]cis-cyclohex-4-ene-1,2-dicarboximide dimaleate] | – | – | – | – | – | 3 | 15 | 24 | – | – | –
6 | O=C(O)/C=C\C(=O)O.O=C(OC(CN1CCN(c2ccccn2)CC1)CN1C(=O)CCC1=O)C1CCCCC1 (stereo not drawn) [Compound A, N-[2-Cyclohexylcarbonyloxy-3-{4-(2-pyridyl)piperazin-1-yl}propyl]succinimide maleate] | – | – | – | 0/5 | 0/5 | – | – | – | 12 | 25 | 19
7 | CCC(=O)OC(CN1CCN(c2ccccn2)CC1)CN1C(=O)c2ccccc2C1=O (stereo not drawn) [Compound I, N-[2-Propionyloxy-3-{4-(2-pyridyl)piperazin-1-yl}propyl]phthalimide maleate] | – | – | – | – | – | 14 | 26 | 31 | – | – | –
8 | CCCCCC(=O)OC(CN1CCN(c2ccccn2)CC1)CN1C(=O)C2CC=CCC2C1=O (stereo not drawn) [Compound C, N-[2-n-Caproyloxy-3-{4-(2-pyridyl)piperazin-1-yl}propyl]cis-cyclohex-4-ene-1,2-dicarboximide dimaleate] | – | – | – | 0/5 | 0/5 | 7 | 17 | 23 | – | – | –
9 | CCCCCC/C=C/C(=O)OC(CN1CCN(c2ccccn2)CC1)CN1C(=O)[C@H]2CC=CC[C@H]2C1=O.O=C(O)/C=C\C(=O)O.O=C(O)/C=C\C(=O)O (relative stereo) [Compound D, N-[2-(trans-2-Nonenoyloxy)-3-{4-(2-pyridyl)piperazin-1-yl}propyl]cis-cyclohex-4-ene-1,2-dicarboximide dimaleate] | – | – | – | 0/5 | 0/5 | – | – | – | 0 | 13 | 26
10 | O=C(OC(CN1CCN(c2ccccn2)CC1)CN1C(=O)[C@@H]2[C@H](C1=O)[C@@H]1C=C[C@H]2C1)C1CCCCC1 (stereo partly drawn) [Compound F, N-[2-Cyclohexylcarbonyloxy-3-{4-(2-pyridyl)piperazin-1-yl}propyl]endo-cis-bicyclo[2,2,1]hept-5-ene-2,3-dicarboximide dimaleate] | – | – | – | 0/5 | 0/5 | 14 | 25 | 34 | – | – | –
11 | O=C(OC(CN1CCN(c2ccccn2)CC1)CN1C(=O)c2ccccc2C1=O)c1cccnc1 (stereo not drawn) [Compound H, N-[2-Nicotinoyloxy-3-{4-(2-pyridyl)piperazin-1-yl}propyl]phthalimide maleate] | – | – | – | – | – | 19 | 23 | 27 | – | – | –
